In patent US10077288B2, “Hydroxystatin derivatives for the treatment of arthrosis” (Merck Patent GmbH, priority 2012, dated 2018) one finds IC50 data, which are given here for 18 compounds.

One may read the IC50 as the concentration at which inhibition is half-maximal.

The target of the assay is T1, cathepsin D isolated from the human liver (Homo sapiens, UniProt P07339).
T1 construct: cathepsin D isolated from the human liver (Sigma-Aldrich); purchased Sigma-Aldrich; host or cells: human liver (tissue-derived, not recombinant)
The assay can be described thus: In-vitro fluorescence assay for identification of cathepsin D inhibitors. In kind it is biochemical. The following applies: human liver cathepsin D 1.4 nM, pH 5.5; read-out: CatD assay IC50-(M). On the procedure:
EXAMPLE 4: IN-VITRO FLUORESCENCE ASSAY FOR IDENTIFICATION OF CATHEPSIN D INHIBITORS
In order to identify modulators of cathepsin D activity, a continuous enzymatic test was carried out with a synthetic peptide which carries a fluorescent group (MCA=(7-methoxycoumarin-4-yl)acetyl) which is quenched by energy transfer from a Dpn (2,4 dinitrophenyl) group on the same molecule, in Greiner 384-well nb microtitre plates. Cleavage of the peptidic substrate by cathepsin D causes an increase in the fluorescence intensity. In order to determine the efficacy of substances, the time-dependent increase in the fluorescence intensity in the presence of the substance was compared with the time-dependent increase in fluorescence in the absence of substances. The reference substance used was pepstatin A (Sigma-Aldrich). The substrate used was MCA-GKPILFFRLK(Dnp)d-R—NH2 (Enzo Life Sciences, Lörrach). The enzyme employed was cathepsin D isolated from the human liver (Sigma-Aldrich) in a final concentration of 1.4 nM. The test was carried out in 100 mM sodium acetate buffer, 1.25% (v/v) of DMSO, 0.25% (w/v) of Chaps, pH 5.5. 2 μl of each substance solution with serially diluted substance concentration were added to in each case 4 μl of cathepsin D solution and incubated at room temperature for 10 min. The reaction was started by addition of 2 μl of substrate solution (final concentration 5 μM). After carrying out a starting-point fluorescence measurement (excitation wavelength 340 nm/emission wavelength 450 nm) using an Envision multilabel reader (Perkin Elmer), the reaction was incubated at room temperature for 60 min. The amount of peptide fragment cleaved off during the reaction time was subsequently measured by determination of the increase in the fluorescence intensity at 450 nm (excitation wavelength 340 nm).

*1 amine or outer side, *2 acyl side, *3 side chain or, on linkers, in order; H or OH if unused. Where a SMILES comes first, the peptide text is derived from it. [ ]: non-standard residue; d: D form. The star is where a group is joined. Ahppa(3S,4S) = O=C(C[C@H](O)[C@H](Cc1ccccc1)N[*:1])[*:2]; PhAc = O=C(Cc1ccccc1)*; OBn = c1ccc(CO*)cc1

T1 sequence (P07339 65-161 limits assumed): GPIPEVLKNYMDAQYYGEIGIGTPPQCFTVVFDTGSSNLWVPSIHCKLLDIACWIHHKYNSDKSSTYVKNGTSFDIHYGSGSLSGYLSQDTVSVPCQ
T1 sequence (P07339 169-412 limits assumed): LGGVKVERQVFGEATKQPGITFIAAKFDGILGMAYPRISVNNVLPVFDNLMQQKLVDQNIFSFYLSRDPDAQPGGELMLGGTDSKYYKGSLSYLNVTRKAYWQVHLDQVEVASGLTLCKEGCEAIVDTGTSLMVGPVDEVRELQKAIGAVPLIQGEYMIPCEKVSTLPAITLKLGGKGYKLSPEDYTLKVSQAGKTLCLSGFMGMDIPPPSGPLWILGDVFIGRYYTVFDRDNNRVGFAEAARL

Regarding `CC[C@H](C)[C@H](NC(=O)C[C@H](O)[C@H](Cc1ccccc1)NC(=O)[C@@H](NC(=O)Cc1ccc(OC)c(OC)c1)C(C)C)C(=O)N[C@H](C(=O)OCc1ccccc1)C(C)C` [Compound 10, benzly (S)-2-[(2S,3S)-2-((3S,4S)-4-{(S)-2-[2-(3,4-dimethoxyphenyl)-acetylamino]-3-methylbutyrylamino}-3-hydroxy-5-phenylpentanoylamino)-3-methylpentanoylamino]-3-methylbutyrate], the IC50 was 2.9e-08 M.

Regarding `CC[C@H](C)[C@H](NC(=O)C[C@H](O)[C@H](Cc1ccccc1)NC(=O)[C@@H](NC(=O)[C@H](CC(C)C)NC(=O)CC(C)C)C(C)C)C(=O)NC1CCCC1` [Compound 46, N-((1S,2S)-1-cyclopentylcarbamoyl-2-methylbutyl)-(2S,5S)-3-hydroxy-4-{(S)-3-methyl-2-[(S)-4-methyl-2-(3-methylbutyrylamino)-pentanoylamino]butyrylamino}-5-phenylpentanamide], the IC50 came to 1.8e-09 M.

Consider `CC[C@H](C)[C@H](NC(=O)C[C@H](O)[C@H](Cc1ccccc1)NC(=O)[C@@H](NC(=O)Cc1cccc(Oc2ccccc2)c1)C(C)C)C(=O)N[C@H](C(=O)OCc1ccccc1)C(C)C` [Compound 19, benzly (S)-2-[(2S,3S)-2-((3S,4S)-3-hydroxy-4-{(S)-3-methyl-2-[2-(3-phenoxyphenyl)acetylamino]butyrylamino}-5-phenylpentanoylamino)-3-methylpentanoylamino]-3-methylbutyrate], for which the IC50 came to 4e-08 M.

In the case of `CC[C@H](C)[C@H](NC(=O)C[C@H](O)[C@H](Cc1ccccc1)NC(=O)[C@@H](NC(=O)COc1ccc2ccccc2c1)C(C)C)C(=O)N[C@H](C(=O)OCc1ccccc1)C(C)C` [Compound 7], the IC50 was determined as 3.5e-07 M.

Consider `CC[C@H](C)[C@H](NC(=O)C[C@H](O)[C@H](Cc1ccccc1)NC(=O)[C@@H](NC(=O)[C@@H](O)c1ccccc1)C(C)C)C(=O)N[C@H](C(=O)OCc1ccccc1)C(C)C` [Compound 35, benzly (S)-2-((2S,3S)-2-{(3S,4S)-3-hydroxy-4-[(S)-2-((S)-2-hydroxy-2-phenylacetylamino)-3-methylbutyrylamino]-5-phenylpentanoylamino}-3-methylpentanoylamino)-3-methylbutyrate], for which the IC50 worked out at 5.8e-07 M.

As for `CCCOc1cccc(CC(=O)N[C@H](C(=O)N[C@@H](Cc2ccccc2)[C@@H](O)CC(=O)N[C@H](C(=O)N[C@H](C(=O)O)C(C)C)[C@@H](C)CC)[C@@H](C)CC)c1` [Compound 40, (S)-2-[(2S,3S)-2-((3S,4S)-3-hydroxy-4-{(2S,3S)-3-methyl-2-[2-(3-propoxyphenyl)acetylamino]pentanoylamino}-5-phenylpentanoylamino)-3-methylpentanoylamino]-3-methylbutyric acid], the IC50 worked out at 1.7e-08 M.

With `CC[C@H](C)[C@H](NC(=O)C[C@H](O)[C@H](Cc1ccccc1)NC(=O)[C@@H](NC(=O)c1cccc(OC(C)(C)C)c1)C(C)C)C(=O)N[C@H](C(=O)O)C(C)C` [Compound 26, (S)-2-((2S,3S)-2-{(3S,4S)-4-[(S)-2-(3-tert-butoxybenzoylamino)-3-methylbutyrylamino]-3-hydroxy-5-phenylpentanoylamino}-3-methylpentanoylamino)-3-methylbutyric acid], the IC50 turned out to be 1.2e-07 M.

In the case of `CC[C@H](C)[C@H](NC(=O)C[C@H](O)[C@H](Cc1ccccc1)NC(=O)[C@@H](NC(=O)[C@H](CC(C)C)NC(=O)Cc1ccccc1)C(C)C)C(=O)N[C@H](C(=O)OCc1ccccc1)C(C)C` [Compound 44, benzyl (S)-2-((2S,3S)-2-{(3S,4S)-3-hydroxy-4-[(S)-3-methyl-2-((S)-4-methyl-2-phenylacetylaminopentanoylamino)butyrylamino]-5-phenylpentanoylamino}-3-methylpentanoylamino)-3-methylbutyrate] (PhAc-LV[Ahppa(3S,4S)]IV-OBn), the IC50 stood at 2.1e-09 M.

On to `CC[C@H](C)[C@H](NC(=O)C[C@H](O)[C@H](Cc1ccccc1)NC(=O)[C@@H](NC(=O)C(CC)(CC)CC)C(C)C)C(=O)N[C@H](C(=O)O)C(C)C` [Compound 38, (S)-2-((2S,3S)-2-{(3S,4S)-4-[(S)-2-(2,2-diethylbutyrylamino)-3-methylbutyrylamino]-3-hydroxy-5-phenylpentanoylamino}-3-methylpentanoylamino)-3-methylbutyric acid], for which the IC50 worked out at 7e-06 M.

With `CC[C@H](C)[C@H](NC(=O)C[C@H](O)[C@H](Cc1ccccc1)NC(=O)[C@@H](NC(=O)Cc1cccc2ccccc12)C(C)C)C(=O)N[C@H](C(=O)O)C(C)C` [Compound 30, (S)-2-((2S,3S)-2-{(3S,4S)-3-hydroxy-4-[(S)-3-methyl-2-(2-naphthalen-1-ylacetylamino)butyrylamino]-5-phenylpentanoylamino}-3-methylpentanoylamino)-3-methylbutyric acid], the IC50 amounted to 8.5e-08 M.

Regarding `CC[C@H](C)[C@H](NC(=O)C[C@H](O)[C@H](Cc1ccccc1)NC(=O)[C@@H](NC(=O)C(c1ccccc1)c1ccccc1)C(C)C)C(=O)N[C@H](C(=O)OCc1ccccc1)C(C)C` [Compound 32, benzyl (S)-2-{(2S,3S)-2-[(3S,4S)-4-((S)-2-diphenylacetylamino-3-methylbutyrylamino)-3-hydroxy-5-phenylpentanoylamino]-3-methylpentanoylamino}-3-methylbutyrate], the IC50 was 3.2e-07 M.

For `CC[C@H](C)[C@H](NC(=O)C[C@H](O)[C@H](Cc1ccccc1)NC(=O)[C@@H](NC(=O)Cc1ccccc1OC)C(C)C)C(=O)N[C@H](C(=O)OCc1ccccc1)C(C)C` [Compound 22, benzly (S)-2-[(2S,3S)-2-((3S,4S)-3-hydroxy-4-{(S)-2-[2-(2-methoxy-phenyl)acetylamino]-3-methylbutyrylamino}-5-phenylpentanoylamino)-3-methylpentanoylamino]-3-methylbutyrate], the IC50 is 2.1e-07 M.

Consider `CC[C@H](C)[C@H](NC(=O)C[C@H](O)[C@H](Cc1ccccc1)NC(=O)[C@@H](NC(=O)Cc1cc(OC(F)(F)F)ccc1OC)C(C)C)C(=O)N[C@H](C(=O)O)C(C)C` [Compound 24, (S)-2-[(2S,3S)-2-((3S,4S)-3-hydroxy-4-{(S)-2-[2-(2-methoxy-5-trifluoromethoxyphenyl)acetylamino]-3-methylbutyrylamino}-5-phenylpentanoylamino)-3-methylpentanoylamino]-3-methylbutyric acid], for which the IC50 amounted to 1.1e-08 M.

With `CC[C@H](C)[C@H](NC(=O)C[C@H](O)[C@H](Cc1ccccc1)NC(=O)[C@@H](NC(=O)Cc1cccc(Oc2ccccc2)c1)C(C)C)C(=O)N[C@H](C(=O)O)C(C)C` [Compound 27, (S)-2-[(2S,3S)-2-((3S,4S)-3-hydroxy-4-{(S)-3-methyl-2-[2-(3-phenoxyphenyl)acetylamino]butyrylamino}-5-phenylpentanoylamino)-3-methylpentanoylamino]-3-methylbutyric acid], the IC50 turned out to be 1.2e-08 M.

`CC[C@H](C)[C@H](NC(=O)C[C@H](O)[C@H](Cc1ccccc1)NC(=O)[C@@H](NC(=O)Cc1ccc(OC)cc1)C(C)C)C(=O)N[C@H](C(=O)OCc1ccccc1)C(C)C` [Compound 11, benzly (S)-2-[(2S,3S)-2-((3S,4S)-3-hydroxy-4-{(S)-2-[2-(4-methoxy-phenyl)acetylamino]-3-methylbutyrylamino}-5-phenylpentanoylamino)-3-methylpentanoylamino]-3-methylbutyrate]: the IC50 came to 9e-08 M.

Consider `CC[C@H](C)[C@H](NC(=O)C[C@H](O)[C@H](Cc1ccccc1)NC(=O)[C@@H](NC(=O)CCCc1ccccc1)C(C)C)C(=O)N[C@H](C(=O)OCc1ccccc1)C(C)C` [Compound 2, benzly (S)-2-((2S,3S)-2-{(3S,4S)-3-hydroxy-4-[(S)-3-methyl-2-(4-phenylbutyrylamino)butyrylamino]-5-phenylpentanoylamino}-3-methylpentanoylamino)-3-methylbutyrate], for which the IC50 is 7.1e-08 M.

Regarding `CC[C@H](C)[C@H](NC(=O)C[C@H](O)[C@H](Cc1ccccc1)NC(=O)[C@@H](NC(=O)Cc1ccc(OC)c(OC)c1)C(C)C)C(=O)N[C@H](C(=O)O)C(C)C` [Compound 14, (S)-2-[(2S,3S)-2-((3S,4S)-4-{(S)-2-[2-(3,4-dimethoxyphenyl)acetylamino]-3-methylbutyrylamino}-3-hydroxy-5-phenylpentanoylamino)-3-methylpentanoylamino]-3-methylbutyric acid], the IC50 worked out at 1.5e-07 M.

`CC[C@H](C)[C@H](NC(=O)C[C@H](O)[C@H](Cc1ccccc1)NC(=O)[C@@H](NC(=O)C(c1ccccc1)c1ccccc1)C(C)C)C(=O)N[C@H](C(=O)O)C(C)C` [Compound 33, (S)-2-{(2S,3S)-2-[(3S,4S)-4-((S)-2-diphenylacetylamino-3-methyl-butyrylamino)-3-hydroxy-5-phenylpentanoylamino]-3-methylpentanoylamino}-3-methylbutyric acid]: the IC50 was found to be 1.6e-08 M.
